Experimental data taken from patent publication US20240228572A1 (i2o Therapeutics, Inc., priority 2020, published 2024).
*1 amine or outer side, *2 acyl side, *3 side chain or, on linkers, in order; H or OH if unused. Where a SMILES comes first, the peptide text is derived from it. Side-chain parts run from the residue outwards. [ ]: non-standard residue; d: D form. The star is where a group is joined. C20 diacid = O=C(O)CCCCCCCCCCCCCCCCCCC(=O)*; γGlu = O=C(O)[C@H](CCC(=O)[*:2])N[*:1]; AEEA = NCCOCCOCC(=O)O; Aib = CC(C)(N)C(=O)O

Columns and labels:
[1] = Stability in subcutaneous (SC) tissue homogenates, rat; format: in vitro ADME; conditions: subcutaneous (SC) tissue homogenate, pH 7.4, read-out: (H)SC tissue stability t½ (converted)
Method: In vitro incubations in subcutaneous (SC) tissue homogenates were used to characterize the ability of peptides to resist pre-systemic degradation by proteases and peptidases after SC administration. In vivo nonclinical studies have shown that peptidase activity in the SC space can limit the bioavailability of a peptide after SC administration. Peptides with high SC bioavailability are stable in this assay, while peptides with low SC bioavailability are unstable in this assay.
Human SC tissue was homogenized in cold 25 mM HEPES buffer (pH 7.4, 10-fold volume based on sample weight), and then filtered through a double layer of cheesecloth. The filtrates were aliquoted, flash frozen on a methanol/dry ice bath and stored at −80° C. The protein concentration of each pooled batch was determined using the BCA protein assay. Thawed stocks of human SC tissue homogenates were diluted to 1.0 mg protein/mL in 25 mM HEPES buffer (pH 7.4) and aliquoted into a 96-well plate. The diluted SC homogenates were pre-warmed for 10 minutes at 37° C. Reactions were initiated by the addition of test peptide (10 mcM final concentration) also dissolved in 25 mM HEPES buffer (pH 7.4). Reactions were maintained at 37° C. in a shaking water bath. […] Samples were analyzed by UPLC-MS/MS.

[2] = tested on: cynomolgus monkey GCGR; assay: cAMP accumulation assay, CHO-K1 cells expressing cynomolgus monkey GCGR; format: cell-based; conditions: cyno glucagon receptor
From the text: In the presence of the non-specific cAMP/cGMP phosphodiesterase inhibitor, 3-isobutyl-1-methylxanthine (IBMX), accumulating cAMP can be measured in vitro using common detection methods. Thus, it is possible to estimate an in vitro potency (pEC50) for peptides activating each of these receptors using fit dose-response curves for cAMP accumulation.
A cDNA fragment encoding the full-length open reading frame of the cynomolgus monkey GLP-1R (Genebank accession #XM_028847603 was cloned into pcDNA3.1+ for expression in CHO-K1 cells. A cDNA fragment encoding the full-length open reading frame of the human GCGR (Genebank accession #NM_000160 was cloned into pcDNA3.1+ for expression in CHO-K1 cells. A cDNA fragment encoding the full-length open reading frame of the rat GCGR (Genebank accession #NM_12091 was cloned into pcDNA3.1+ for expression in CHO-K1 cells. A cDNA fragment encoding the full-length open reading frame of the cynomolgus monkey GCGR (Genebank accession #XM_005585255 was cloned into pcDNA3.1+ for expression in CHO-K1 cells. […]
Peptides were serially diluted 4-fold in assay buffer to final concentrations ranging from 1×10^−9 M to 9.5×10^−16 M. Two assay controls consisting of 50 mcM forskolin (cAMP system maximum) or assay buffer only (cAMP system minimum) were also prepared. […] Plates were read on an Envision fluorescent plate reader (PerkinElmer). […]

[3] = Subcutaneous bolus injection pharmacokinetics / bioavailability in rats; format: in vivo; conditions: rat, plasma; SC bolus 0.11 mg/kg, male Sprague-Dawley rats
Method: Peptides were dissolved in sterile saline and administered to non-fasted male Sprague-Dawley rats (n=3 per group) at a dose of 0.1 mg/kg via a single bolus injection into the subcutaneous space between the scapulae. Blood samples (approximately 250 μL) were collected for pharmacokinetic analysis via a jugular vein cannula at 0.083, 0.25, 0.5, 1, 2, 4, 8, 24, 48, 72, 96, and 120 hr post-dose into microtainer tubes containing K2EDTA as anticoagulant and 25 μL of a protease inhibitor cocktail. Plasma was prepared by centrifugation and stored at −80° C. until analysis.
A 70 μL aliquot of each plasma sample was placed into to a 96-well plate. To each well was added 210 μL of 0.1% TFA in 2:1 ethanol:acetonitrile containing an appropriate internal standard. Plates were vortex mixed for 10 min at 1300 rpm, and then centrifuged for 10 min at 500× g. Supernatants (210 μL) were placed into a clean 96-well plate and evaporated under a nitrogen stream at 45° C. Residues were reconstituted in 80 μL of 20% acetonitrile (aq) containing 0.1% formic acid.
All calibration standards were prepared in control rat plasma containing K2EDTA and protease inhibitor cocktail.
Samples and standards were analyzed by electrospray ionization (ESI) UPLC-MS/MS using a system consisting of a CTC HTS PAL auto-injector (Leap, Carrboro, NC), an Agilent Infinity 1290 system with column oven (Palo Alto, CA), a Valco switching valve (Houston, TX), and a Sciex TripleTOF® 5600 mass spectrometer (Framingham, MA). Samples were injected onto a 2.1×50 mm reverse phase C18 analytical column, typically a Waters CORTECS UPLC C18+, 1.6 μm (Waters Corporation, Milford, MA) or similar. […] Initial conditions consisted of 95% A and 5% B. The organic component was increased to 95% B over a period of 3-4 minutes, depending on the peptide. Typical flow rates were 550 μL/min. The column temperature was held constant at 45° C. Peptides were quantified by monitoring one or more product ions produced from a multiply charged parent ion.

## CC(C)C[C@H](NC(=O)[C@H](Cc1ccc(O)cc1)NC(=O)[C@H](CCCCN)NC(=O)[C@H](CO)NC(=O)[C@H](Cc1ccc(O)cc1)NC(=O)[C@H](CC(=O)O)NC(=O)[C@H](CO)NC(=O)[C@@H](NC(=O)[C@H](Cc1ccccc1)NC(=O)[C@@H](NC(=O)CNC(=O)[C@H](Cc1c[nH]cn1)NC(=O)[C@H](CO)NC(=O)[C@@H](N)Cc1ccc(O)cc1)[C@@H](C)O)[C@@H](C)O)C(=O)N[C@@H](CC(=O)O)C(=O)NC(C)(C)C(=O)N[C@@H](CCCCN)C(=O)N[C@@H](Cc1ccc(O)cc1)C(=O)N[C@@H](C)C(=O)N[C@@H](CCC(N)=O)C(=O)N[C@@H](CCCCNC(=O)CC[C@H](NC(=O)CC[C@H](NC(=O)COCCOCCNC(=O)CCCCCCCCCCCCCCCCCCC(=O)O)C(=O)O)C(=O)O)C(=O)N[C@@H](Cc1ccccc1)C(=O)N[C@H](C(=O)NC(C)(C)C(=O)N[C@@H](Cc1c[nH]c2ccccc12)C(=O)N[C@@H](CC(C)C)C(=O)N[C@@H](CCC(=O)O)C(=O)N[C@@H](CC(=O)O)C(=O)N[C@@H](CCC(=O)O)C(=O)N1CCC[C@H]1C(=O)N[C@@H](CO)C(=O)N[C@@H](CO)C(=O)NCC(=O)N[C@@H](C)C(=O)N1CCC[C@H]1C(=O)N1CCC[C@H]1C(=O)N1CCC[C@H]1C(=O)N[C@@H](CO)C(=O)O)C(C)C [Compound A6] (H-YSHGTFTSDYSKYLD[Aib]KYAQK([γGlu-γGlu-AEEA-C20 diacid])FV[Aib]WLEDEPSSGAPPPS-OH; N-terminus assumed)
[1]
  half-life at 10 mcM: 9 h
[2]
  Activity (as EC50 values) cGCGR: 9.77
[3]
  Cmax: 462 ng/mL
  Tmax: 8 to 24 h
  bioavailability: 94.9%
  half-life: 15.8 h
